For 3 compounds, residual activity results are on record in the kinase profiling compilation of Christmann-Franck et al. (2016).

Sequence of EPHA8 (human) (P29322 whole entry, looked up): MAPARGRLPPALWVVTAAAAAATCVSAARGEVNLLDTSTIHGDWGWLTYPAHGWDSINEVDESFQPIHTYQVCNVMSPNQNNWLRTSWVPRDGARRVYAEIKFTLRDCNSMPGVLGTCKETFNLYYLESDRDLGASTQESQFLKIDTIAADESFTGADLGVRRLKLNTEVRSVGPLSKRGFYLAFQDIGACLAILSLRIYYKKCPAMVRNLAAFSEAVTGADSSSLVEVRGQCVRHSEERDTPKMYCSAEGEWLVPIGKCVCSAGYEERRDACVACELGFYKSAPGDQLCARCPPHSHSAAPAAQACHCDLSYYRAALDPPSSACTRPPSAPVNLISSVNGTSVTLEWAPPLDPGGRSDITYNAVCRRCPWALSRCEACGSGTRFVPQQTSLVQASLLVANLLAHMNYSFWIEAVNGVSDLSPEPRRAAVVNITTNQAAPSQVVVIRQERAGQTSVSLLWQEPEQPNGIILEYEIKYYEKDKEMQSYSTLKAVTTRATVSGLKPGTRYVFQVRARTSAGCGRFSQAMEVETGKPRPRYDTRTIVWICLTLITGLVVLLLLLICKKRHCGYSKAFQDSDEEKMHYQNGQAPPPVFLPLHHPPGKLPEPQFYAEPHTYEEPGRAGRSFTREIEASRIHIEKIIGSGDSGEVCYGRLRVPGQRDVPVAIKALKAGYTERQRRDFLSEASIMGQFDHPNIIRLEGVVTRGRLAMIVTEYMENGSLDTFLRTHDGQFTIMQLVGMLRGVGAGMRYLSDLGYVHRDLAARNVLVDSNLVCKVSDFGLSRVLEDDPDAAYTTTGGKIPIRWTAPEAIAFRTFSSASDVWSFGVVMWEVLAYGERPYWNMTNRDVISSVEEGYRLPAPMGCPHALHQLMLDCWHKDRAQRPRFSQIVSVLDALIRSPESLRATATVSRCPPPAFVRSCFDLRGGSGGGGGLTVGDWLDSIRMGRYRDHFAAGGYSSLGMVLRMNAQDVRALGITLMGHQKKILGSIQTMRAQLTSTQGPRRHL
Sequence of IKBKE (human) (Q14164 whole entry, looked up): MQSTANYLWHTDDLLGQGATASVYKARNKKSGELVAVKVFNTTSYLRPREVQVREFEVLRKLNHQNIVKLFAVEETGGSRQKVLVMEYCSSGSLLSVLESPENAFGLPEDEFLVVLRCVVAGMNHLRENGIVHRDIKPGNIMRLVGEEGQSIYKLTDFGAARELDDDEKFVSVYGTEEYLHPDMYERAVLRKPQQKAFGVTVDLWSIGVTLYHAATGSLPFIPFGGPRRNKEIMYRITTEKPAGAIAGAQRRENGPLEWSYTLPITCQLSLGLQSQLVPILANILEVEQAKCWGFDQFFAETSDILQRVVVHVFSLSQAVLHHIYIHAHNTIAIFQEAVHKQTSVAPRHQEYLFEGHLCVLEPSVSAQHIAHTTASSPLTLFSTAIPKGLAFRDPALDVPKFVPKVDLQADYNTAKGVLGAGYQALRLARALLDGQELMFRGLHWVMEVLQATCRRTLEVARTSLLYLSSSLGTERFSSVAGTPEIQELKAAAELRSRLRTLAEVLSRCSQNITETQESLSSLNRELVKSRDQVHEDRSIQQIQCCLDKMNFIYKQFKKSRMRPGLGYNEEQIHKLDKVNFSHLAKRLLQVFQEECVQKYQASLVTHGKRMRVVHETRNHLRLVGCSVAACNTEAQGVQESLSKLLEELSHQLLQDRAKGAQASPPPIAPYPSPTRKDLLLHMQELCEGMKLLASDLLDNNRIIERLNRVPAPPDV
Sequence of PAK1 (human) (Q13153 whole entry, looked up): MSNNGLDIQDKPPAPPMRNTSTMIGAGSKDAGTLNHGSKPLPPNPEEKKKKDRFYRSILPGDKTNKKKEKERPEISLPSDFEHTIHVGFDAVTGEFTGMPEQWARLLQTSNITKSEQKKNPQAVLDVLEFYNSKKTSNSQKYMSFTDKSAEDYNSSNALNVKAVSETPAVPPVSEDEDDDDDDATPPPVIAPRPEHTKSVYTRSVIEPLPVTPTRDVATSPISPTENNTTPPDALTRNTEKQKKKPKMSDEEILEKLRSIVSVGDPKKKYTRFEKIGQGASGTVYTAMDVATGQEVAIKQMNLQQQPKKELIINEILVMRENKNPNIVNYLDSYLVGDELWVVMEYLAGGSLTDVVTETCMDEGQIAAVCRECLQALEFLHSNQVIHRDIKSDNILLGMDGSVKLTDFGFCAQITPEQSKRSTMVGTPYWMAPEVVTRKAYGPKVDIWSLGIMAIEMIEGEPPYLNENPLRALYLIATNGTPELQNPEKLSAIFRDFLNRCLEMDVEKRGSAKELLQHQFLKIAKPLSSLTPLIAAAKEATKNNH
Sequence of PHKG1 (human) (Q16816 whole entry, looked up): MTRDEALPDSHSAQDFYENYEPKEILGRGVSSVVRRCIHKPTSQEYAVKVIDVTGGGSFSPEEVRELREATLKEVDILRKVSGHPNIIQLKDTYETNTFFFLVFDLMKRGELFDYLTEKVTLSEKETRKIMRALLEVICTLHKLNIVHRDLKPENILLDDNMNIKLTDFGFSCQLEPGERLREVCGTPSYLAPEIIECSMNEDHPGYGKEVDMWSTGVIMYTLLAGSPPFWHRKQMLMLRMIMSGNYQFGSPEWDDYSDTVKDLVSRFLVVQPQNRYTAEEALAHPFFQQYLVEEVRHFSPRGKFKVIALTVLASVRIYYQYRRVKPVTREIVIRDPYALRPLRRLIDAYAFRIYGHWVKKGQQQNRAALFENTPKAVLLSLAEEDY

In the first assay the target is ACVR1 (human) (UniProt Q04771). Kind of assay: radiometric filter-binding kinase assay, Kinase HotSpot. Conditions: compound 0.5 µM; ATP 10 µM.
Sequence of ACVR1 (human) (Q04771 whole entry, looked up): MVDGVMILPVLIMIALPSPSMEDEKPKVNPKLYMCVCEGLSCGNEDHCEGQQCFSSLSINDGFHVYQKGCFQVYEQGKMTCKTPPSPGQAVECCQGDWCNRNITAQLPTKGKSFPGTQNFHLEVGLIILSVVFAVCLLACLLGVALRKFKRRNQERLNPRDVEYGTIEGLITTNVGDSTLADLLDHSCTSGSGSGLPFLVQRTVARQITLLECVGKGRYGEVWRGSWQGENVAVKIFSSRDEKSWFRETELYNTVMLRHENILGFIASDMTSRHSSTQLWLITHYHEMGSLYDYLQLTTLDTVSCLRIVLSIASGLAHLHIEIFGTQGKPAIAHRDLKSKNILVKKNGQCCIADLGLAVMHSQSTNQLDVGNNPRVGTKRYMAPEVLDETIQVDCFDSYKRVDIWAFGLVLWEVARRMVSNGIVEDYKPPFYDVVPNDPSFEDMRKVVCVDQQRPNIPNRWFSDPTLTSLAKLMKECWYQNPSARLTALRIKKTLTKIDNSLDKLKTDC
The term residual activity denotes the signal under treatment as a percentage of the control signal. For the compound `O=C1Nc2ccccc2/C1=C1/Nc2ccccc2/C1=N\OCCC(O)CO` (stereo not drawn), the residual activity amounted to 199%.
For the compound `Cn1sc(=O)n(Cc2ccccc2)c1=O`, the residual activity turned out to be 102%.
`CN(C)C[C@H]1CCn2c(c(C3=C(c4cn(C)c5ccccc45)C(=O)NC3=O)c3ccccc32)C1`: the residual activity worked out at 93.3%.

The target of the next assay is ABL2 (human) (UniProt P42684). Described as above. Conditions: compound 0.5 µM; ATP 10 µM.
In the case of `O=C1Nc2ccccc2/C1=C1/Nc2ccccc2/C1=N\OCCC(O)CO` (stereo not drawn), the residual activity amounted to 38.5%.
`Cn1sc(=O)n(Cc2ccccc2)c1=O`: the residual activity was 96.7%.
For the compound `CN(C)C[C@H]1CCn2c(c(C3=C(c4cn(C)c5ccccc45)C(=O)NC3=O)c3ccccc32)C1`, the residual activity turned out to be 96.3%.

The target of another assay is DYRK1A (human) (UniProt Q13627). Described as above. The following applies: compound 0.5 µM; ATP 10 µM.
On to `O=C1Nc2ccccc2/C1=C1/Nc2ccccc2/C1=N\OCCC(O)CO` (stereo not drawn), for which the residual activity worked out at 82.8%.
Regarding `Cn1sc(=O)n(Cc2ccccc2)c1=O`, the residual activity is 92.6%.
Consider `CN(C)C[C@H]1CCn2c(c(C3=C(c4cn(C)c5ccccc45)C(=O)NC3=O)c3ccccc32)C1`, for which the residual activity came to 88.7%.

Another assay deals with STK25 (human) (UniProt O00506). Described as above. The following applies: compound 0.5 µM; ATP 10 µM.
As for `O=C1Nc2ccccc2/C1=C1/Nc2ccccc2/C1=N\OCCC(O)CO` (stereo not drawn), the residual activity turned out to be 74%.
For the compound `Cn1sc(=O)n(Cc2ccccc2)c1=O`, the residual activity was 96.2%.
Consider `CN(C)C[C@H]1CCn2c(c(C3=C(c4cn(C)c5ccccc45)C(=O)NC3=O)c3ccccc32)C1`, for which the residual activity came out at 96%.

A further assay has as its target PAK1 (human) (UniProt Q13153). The description is as above. The following applies: compound 0.5 µM; ATP 10 µM.
With `O=C1Nc2ccccc2/C1=C1/Nc2ccccc2/C1=N\OCCC(O)CO` (stereo not drawn), the residual activity was found to be 71.3%.
In the case of `Cn1sc(=O)n(Cc2ccccc2)c1=O`, the residual activity stood at 94.1%.
Turning to `CN(C)C[C@H]1CCn2c(c(C3=C(c4cn(C)c5ccccc45)C(=O)NC3=O)c3ccccc32)C1`, the residual activity turned out to be 99.8%.

Another assay concerns the target IKBKE (human) (UniProt Q14164). The description is as above. The following applies: compound 0.5 µM; ATP 10 µM.
For the compound `O=C1Nc2ccccc2/C1=C1/Nc2ccccc2/C1=N\OCCC(O)CO` (stereo not drawn), the residual activity came to 45.7%.
Turning to `Cn1sc(=O)n(Cc2ccccc2)c1=O`, the residual activity is 96.4%.
With `CN(C)C[C@H]1CCn2c(c(C3=C(c4cn(C)c5ccccc45)C(=O)NC3=O)c3ccccc32)C1`, the residual activity came out at 78.8%.

The next assay addresses MERTK (human) (UniProt Q12866). The description is as above. The following applies: compound 0.5 µM; ATP 10 µM.
In the case of `O=C1Nc2ccccc2/C1=C1/Nc2ccccc2/C1=N\OCCC(O)CO` (stereo not drawn), the residual activity is 49.4%.
For `Cn1sc(=O)n(Cc2ccccc2)c1=O`, the residual activity came to 92.8%.
Consider `CN(C)C[C@H]1CCn2c(c(C3=C(c4cn(C)c5ccccc45)C(=O)NC3=O)c3ccccc32)C1`, for which the residual activity stood at 95.4%.

The next assay addresses CDK6 CCND3 (human) (UniProt P30281+Q00534). Described as above. The following applies: compound 0.5 µM; ATP 10 µM.
For the compound `O=C1Nc2ccccc2/C1=C1/Nc2ccccc2/C1=N\OCCC(O)CO` (stereo not drawn), the residual activity was found to be 10.2%.
With `Cn1sc(=O)n(Cc2ccccc2)c1=O`, the residual activity is 100%.
For the compound `CN(C)C[C@H]1CCn2c(c(C3=C(c4cn(C)c5ccccc45)C(=O)NC3=O)c3ccccc32)C1`, the residual activity is 95%.

Another assay has as its target HIPK3 (human) (UniProt Q9H422). Described as above. The following applies: compound 0.5 µM; ATP 10 µM.
For the compound `O=C1Nc2ccccc2/C1=C1/Nc2ccccc2/C1=N\OCCC(O)CO` (stereo not drawn), the residual activity came to 66.2%.
For the compound `Cn1sc(=O)n(Cc2ccccc2)c1=O`, the residual activity turned out to be 94.9%.
As for `CN(C)C[C@H]1CCn2c(c(C3=C(c4cn(C)c5ccccc45)C(=O)NC3=O)c3ccccc32)C1`, the residual activity turned out to be 111%.

For the next assay, the target named is FLT1 (human) (UniProt P17948). Described as above. The following applies: compound 0.5 µM; ATP 10 µM.
Consider `O=C1Nc2ccccc2/C1=C1/Nc2ccccc2/C1=N\OCCC(O)CO` (stereo not drawn), for which the residual activity worked out at 51%.
As to `Cn1sc(=O)n(Cc2ccccc2)c1=O`, the residual activity turned out to be 96.1%.
On the same count and under the same terms, the result for `CN(C)C[C@H]1CCn2c(c(C3=C(c4cn(C)c5ccccc45)C(=O)NC3=O)c3ccccc32)C1` reads 91.3%.

A further assay has as its target EPHA8 (human) (UniProt P29322). The assay is described as above. The following applies: compound 0.5 µM; ATP 10 µM.
Take `O=C1Nc2ccccc2/C1=C1/Nc2ccccc2/C1=N\OCCC(O)CO` (stereo not drawn): the residual activity amounted to 91.9%.
Turning to `Cn1sc(=O)n(Cc2ccccc2)c1=O`, the residual activity amounted to 94.4%.
In the case of `CN(C)C[C@H]1CCn2c(c(C3=C(c4cn(C)c5ccccc45)C(=O)NC3=O)c3ccccc32)C1`, the residual activity turned out to be 102%.

Another assay deals with WNK2 (human) (UniProt Q9Y3S1). The assay is described as above. Conditions: compound 0.5 µM; ATP 10 µM.
For `O=C1Nc2ccccc2/C1=C1/Nc2ccccc2/C1=N\OCCC(O)CO` (stereo not drawn), the residual activity is 85.4%.
Regarding `Cn1sc(=O)n(Cc2ccccc2)c1=O`, the residual activity stood at 99.1%.
With `CN(C)C[C@H]1CCn2c(c(C3=C(c4cn(C)c5ccccc45)C(=O)NC3=O)c3ccccc32)C1`, the residual activity stood at 103%.

The target in the next assay is EPHB1 (human) (UniProt P54762). The description is as above. The following applies: compound 0.5 µM; ATP 10 µM.
Sequence of EPHB1 (human) (P54762 whole entry, looked up): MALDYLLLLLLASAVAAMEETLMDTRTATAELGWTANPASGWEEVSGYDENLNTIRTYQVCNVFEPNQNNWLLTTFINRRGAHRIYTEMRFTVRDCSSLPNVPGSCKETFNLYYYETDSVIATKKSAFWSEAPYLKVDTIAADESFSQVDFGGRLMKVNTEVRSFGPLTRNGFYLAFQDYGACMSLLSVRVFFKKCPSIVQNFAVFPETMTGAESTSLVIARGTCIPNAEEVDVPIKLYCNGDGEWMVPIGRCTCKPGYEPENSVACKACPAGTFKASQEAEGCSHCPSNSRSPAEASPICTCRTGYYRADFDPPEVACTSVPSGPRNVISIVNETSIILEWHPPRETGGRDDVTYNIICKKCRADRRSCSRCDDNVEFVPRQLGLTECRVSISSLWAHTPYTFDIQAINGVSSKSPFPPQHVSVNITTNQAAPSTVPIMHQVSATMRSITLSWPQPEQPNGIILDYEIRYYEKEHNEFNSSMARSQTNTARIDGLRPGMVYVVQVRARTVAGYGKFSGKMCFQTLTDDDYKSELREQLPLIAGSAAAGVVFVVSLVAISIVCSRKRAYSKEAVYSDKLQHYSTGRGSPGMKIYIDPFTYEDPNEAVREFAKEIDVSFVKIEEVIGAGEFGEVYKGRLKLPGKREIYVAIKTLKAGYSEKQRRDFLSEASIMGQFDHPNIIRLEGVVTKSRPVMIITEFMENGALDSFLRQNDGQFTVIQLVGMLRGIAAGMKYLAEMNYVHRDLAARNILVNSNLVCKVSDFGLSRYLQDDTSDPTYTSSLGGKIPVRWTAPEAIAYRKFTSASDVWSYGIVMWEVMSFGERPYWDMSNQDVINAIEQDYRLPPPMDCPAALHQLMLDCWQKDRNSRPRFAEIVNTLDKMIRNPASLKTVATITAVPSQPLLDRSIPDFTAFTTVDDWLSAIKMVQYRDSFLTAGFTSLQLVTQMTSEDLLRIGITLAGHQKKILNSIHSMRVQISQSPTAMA
In the case of `O=C1Nc2ccccc2/C1=C1/Nc2ccccc2/C1=N\OCCC(O)CO` (stereo not drawn), the residual activity worked out at 65.9%.
Regarding `Cn1sc(=O)n(Cc2ccccc2)c1=O`, the residual activity is 100%.
Regarding `CN(C)C[C@H]1CCn2c(c(C3=C(c4cn(C)c5ccccc45)C(=O)NC3=O)c3ccccc32)C1`, the residual activity was 106%.

The next assay addresses PHKG1 (human) (UniProt Q16816). Described as above. Conditions: compound 0.5 µM; ATP 10 µM.
As to `O=C1Nc2ccccc2/C1=C1/Nc2ccccc2/C1=N\OCCC(O)CO` (stereo not drawn), the residual activity was 8.06%.
Same read-out and setting: the result for `Cn1sc(=O)n(Cc2ccccc2)c1=O` reads 102%.
For the compound `CN(C)C[C@H]1CCn2c(c(C3=C(c4cn(C)c5ccccc45)C(=O)NC3=O)c3ccccc32)C1`, the residual activity amounted to 78.4%.

Another assay addresses MAP3K10 (human) (UniProt Q02779). The description is as above. The following applies: compound 0.5 µM; ATP 10 µM.
Consider `O=C1Nc2ccccc2/C1=C1/Nc2ccccc2/C1=N\OCCC(O)CO` (stereo not drawn), for which the residual activity came out at 86.9%.
On the same count and under the same terms, the figure for `Cn1sc(=O)n(Cc2ccccc2)c1=O` is 99.5%.
Turning to `CN(C)C[C@H]1CCn2c(c(C3=C(c4cn(C)c5ccccc45)C(=O)NC3=O)c3ccccc32)C1`, the residual activity is 102%.

The target in a further assay is CSNK1D (human) (UniProt P48730). Described as above. Conditions: compound 0.5 µM; ATP 10 µM.
Sequence of CSNK1D (human) (P48730 whole entry, looked up): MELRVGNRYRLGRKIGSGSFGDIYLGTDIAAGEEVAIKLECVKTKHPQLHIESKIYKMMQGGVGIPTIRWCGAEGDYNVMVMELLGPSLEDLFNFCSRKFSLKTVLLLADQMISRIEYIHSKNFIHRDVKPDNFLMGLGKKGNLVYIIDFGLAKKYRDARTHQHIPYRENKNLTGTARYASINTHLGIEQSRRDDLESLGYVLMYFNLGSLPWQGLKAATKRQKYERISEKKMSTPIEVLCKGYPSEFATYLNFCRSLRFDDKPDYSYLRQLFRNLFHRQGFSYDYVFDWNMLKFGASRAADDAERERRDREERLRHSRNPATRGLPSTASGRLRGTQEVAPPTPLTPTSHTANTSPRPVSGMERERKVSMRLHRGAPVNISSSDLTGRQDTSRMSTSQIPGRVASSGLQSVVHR
In the case of `O=C1Nc2ccccc2/C1=C1/Nc2ccccc2/C1=N\OCCC(O)CO` (stereo not drawn), the residual activity was 52.9%.
Still for that read-out and setting: the result for `Cn1sc(=O)n(Cc2ccccc2)c1=O` reads 100%.
Same read-out and setting: the result for `CN(C)C[C@H]1CCn2c(c(C3=C(c4cn(C)c5ccccc45)C(=O)NC3=O)c3ccccc32)C1` reads 101%.

The next assay concerns the target MAP3K11 (human) (UniProt Q16584). The description is as above. The following applies: compound 0.5 µM; ATP 10 µM.
Turning to `O=C1Nc2ccccc2/C1=C1/Nc2ccccc2/C1=N\OCCC(O)CO` (stereo not drawn), the residual activity was determined as 10.5%.
`Cn1sc(=O)n(Cc2ccccc2)c1=O`: the residual activity amounted to 95.3%.
For `CN(C)C[C@H]1CCn2c(c(C3=C(c4cn(C)c5ccccc45)C(=O)NC3=O)c3ccccc32)C1`, the residual activity was 95.2%.

The next assay deals with TEK (human) (UniProt Q02763). The assay is described as above. The following applies: compound 0.5 µM; ATP 10 µM.
On to `O=C1Nc2ccccc2/C1=C1/Nc2ccccc2/C1=N\OCCC(O)CO` (stereo not drawn), for which the residual activity is 101%.
Same read-out and setting: the result for `Cn1sc(=O)n(Cc2ccccc2)c1=O` reads 90.9%.
With `CN(C)C[C@H]1CCn2c(c(C3=C(c4cn(C)c5ccccc45)C(=O)NC3=O)c3ccccc32)C1`, the residual activity stood at 98.4%.

The next assay deals with ITK (human) (UniProt Q08881). Described as above. Conditions: compound 0.5 µM; ATP 10 µM.
Turning to `O=C1Nc2ccccc2/C1=C1/Nc2ccccc2/C1=N\OCCC(O)CO` (stereo not drawn), the residual activity is 34.8%.
On the same count and under the same terms, the figure for `Cn1sc(=O)n(Cc2ccccc2)c1=O` is 93.2%; for `CN(C)C[C@H]1CCn2c(c(C3=C(c4cn(C)c5ccccc45)C(=O)NC3=O)c3ccccc32)C1` it is 94.9%.

The target in a further assay is PBK (human) (UniProt Q96KB5). The description is as above. Conditions: compound 0.5 µM; ATP 10 µM.
`O=C1Nc2ccccc2/C1=C1/Nc2ccccc2/C1=N\OCCC(O)CO` (stereo not drawn): the residual activity was 80.6%.
For `Cn1sc(=O)n(Cc2ccccc2)c1=O`, the residual activity was 107%.
Regarding `CN(C)C[C@H]1CCn2c(c(C3=C(c4cn(C)c5ccccc45)C(=O)NC3=O)c3ccccc32)C1`, the residual activity was 101%.

In a further assay the target is CSNK1G1 (human) (UniProt Q9HCP0). The assay is described as above. Conditions: compound 0.5 µM; ATP 10 µM.
Sequence of CSNK1G1 (human) (Q9HCP0 whole entry, looked up): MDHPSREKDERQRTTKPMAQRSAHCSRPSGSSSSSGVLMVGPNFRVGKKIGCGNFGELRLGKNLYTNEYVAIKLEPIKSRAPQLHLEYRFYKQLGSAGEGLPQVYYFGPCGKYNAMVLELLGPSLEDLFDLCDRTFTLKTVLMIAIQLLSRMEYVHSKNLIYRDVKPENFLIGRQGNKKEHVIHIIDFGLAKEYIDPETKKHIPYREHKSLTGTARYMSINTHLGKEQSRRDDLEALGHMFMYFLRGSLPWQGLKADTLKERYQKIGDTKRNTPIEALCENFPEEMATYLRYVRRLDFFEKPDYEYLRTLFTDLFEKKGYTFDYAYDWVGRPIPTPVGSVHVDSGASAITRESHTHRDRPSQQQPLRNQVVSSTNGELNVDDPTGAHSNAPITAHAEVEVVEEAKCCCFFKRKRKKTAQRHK
Regarding `O=C1Nc2ccccc2/C1=C1/Nc2ccccc2/C1=N\OCCC(O)CO` (stereo not drawn), the residual activity was 89.2%.
Still for that read-out and setting: the result for `Cn1sc(=O)n(Cc2ccccc2)c1=O` reads 95.2%.
With `CN(C)C[C@H]1CCn2c(c(C3=C(c4cn(C)c5ccccc45)C(=O)NC3=O)c3ccccc32)C1`, the residual activity stood at 97%.
